Assay results: the supplement of paper PMC13380429

Assays:
Conditions in all cases: 72 h
HepG2 [1] = assay: cell viability relative to DMSO; higher = less toxic
Vero E6 [2] = assay: as above
Caco-2 [3] = assay: as above
Calu-3 [4] = assay: as above
U2OS [5] = assay: as above
HepG2 [6] = assay: relative viability EC50 (midpoint between 100% and the lowest measured viability); higher = less toxic
Vero E6 [7] = assay: as above
Caco-2 [8] = assay: as above
Calu-3 [9] = assay: as above
U2OS [10] = assay: as above
HepG2 [11] = assay: drug sensitivity score (DSS) for viability; higher = more toxic; extreme values may be limits of the assay
Vero E6 [12] = assay: as above
Caco-2 [13] = assay: as above
Calu-3 [14] = assay: as above
U2OS [15] = assay: as above

Row | SMILES | cell viability (HepG2 [1]; 1 nM) [%] | cell viability (HepG2 [1]; 10 nM) [%] | cell viability (HepG2 [1]; 100 nM) [%] | cell viability (HepG2 [1]; 1000 nM) [%] | cell viability (HepG2 [1]; 10000 nM) [%] | cell viability (Vero E6 [2]; 1 nM) [%] | cell viability (Vero E6 [2]; 10 nM) [%] | cell viability (Vero E6 [2]; 100 nM) [%] | cell viability (Vero E6 [2]; 1000 nM) [%] | cell viability (Vero E6 [2]; 10000 nM) [%] | cell viability (Caco-2 [3]; 1 nM) [%] | cell viability (Caco-2 [3]; 10 nM) [%] | cell viability (Caco-2 [3]; 100 nM) [%] | cell viability (Caco-2 [3]; 1000 nM) [%] | cell viability (Caco-2 [3]; 10000 nM) [%] | cell viability (Calu-3 [4]; 1 nM) [%] | cell viability (Calu-3 [4]; 10 nM) [%] | cell viability (Calu-3 [4]; 100 nM) [%] | cell viability (Calu-3 [4]; 1000 nM) [%] | cell viability (Calu-3 [4]; 10000 nM) [%] | cell viability (U2OS [5]; 1 nM) [%] | cell viability (U2OS [5]; 10 nM) [%] | cell viability (U2OS [5]; 100 nM) [%] | cell viability (U2OS [5]; 1000 nM) [%] | cell viability (U2OS [5]; 10000 nM) [%] | relative viability EC50 (HepG2 [6]) [µM] | relative viability EC50 (Vero E6 [7]) [µM] | relative viability EC50 (Caco-2 [8]) [µM] | relative viability EC50 (Calu-3 [9]) [µM] | relative viability EC50 (U2OS [10]) [µM] | drug sensitivity score (HepG2 [11]) | drug sensitivity score (Vero E6 [12]) | drug sensitivity score (Caco-2 [13]) | drug sensitivity score (Calu-3 [14]) | drug sensitivity score (U2OS [15])
1 | COc1cc2cc(c1Cl)N(C)C(=O)C[C@H](OC(=O)C(C)C)[C@]1(C)O[C@@H]1[C@H](C)[C@@H]1C[C@@](O)(NC(=O)O1)[C@H](OC)/C=C/C=C(\C)C2 [ansamitocin-p-3] | 39 | 32.4 | 38 | 33.8 | 30.9 | 72.1 | 32.5 | 29.8 | 21.2 | 18.4 | 45 | 47.9 | 39 | 40.9 | 35.1 | 62.6 | 53.6 | 36.7 | 37.4 | 37.8 | 39.6 | 29.1 | 19.9 | 17.9 | 16.3 | < 0.001 | 0.0021 | < 0.001 | < 0.001 | < 0.001 | 33.8 | 35 | 28.4 | 27.7 | 37.6
2 | CCOc1ccc(C[C@H]2NC(=O)CCSSC[C@@H](C(=O)N3CCC[C@H]3C(=O)N[C@@H](CCCN)C(=O)NCC(N)=O)NC(=O)[C@H](CC(N)=O)NC(=O)[C@H]([C@@H](C)O)NC(=O)[C@H]([C@@H](C)CC)NC2=O)cc1 [atosiban] | 107 | 99.5 | 92.8 | 90.4 | 97.4 | 102 | 96.2 | 110 | 102 | 100 | 93.1 | 108 | 102 | 102 | 91.8 | 103 | 105 | 103 | 118 | 98.9 | 100 | 99.1 | 94.9 | 100 | 98.7 | > 10 | > 10 | > 10 | > 10 | > 10 | 0 | 0 | 0 | 0 | 0
3 | OC(c1ccccc1)(c1ccccc1)C1CCNCC1 [azacyclonol] | 116 | 91.6 | 101 | 97.8 | 93 | 105 | 100 | 102 | 99.9 | 99.9 | 93.6 | 102 | 97 | 102 | 93.6 | 88.6 | 99.5 | 90 | 97 | 101 | 102 | 99.2 | 98.5 | 102 | 97.1 | > 10 | > 10 | > 10 | > 10 | > 10 | 0 | 0 | 0 | 0 | 0
4 | C=C[C@]1(C)CC[C@@H](C(=C)C)C[C@H]1C(=C)C [beta-elemene] | 95.8 | 101 | 93.2 | 106 | 103 | 97.4 | 97.2 | 95.7 | 97.8 | 96.6 | 95.3 | 98.6 | 97.5 | 92.6 | 102 | 106 | 98.4 | 103 | 97.2 | 102 | 102 | 98 | 97 | 96.4 | 101 | > 10 | > 10 | > 10 | > 10 | > 10 | 0 | 0 | 0 | 0 | 0
5 | CCOc1nc2cccc(C(=O)OC(C)OC(=O)OC3CCCCC3)c2n1Cc1ccc(-c2ccccc2-c2nn[nH]n2)cc1 (stereo not given) [candesartan-cilexetil] | 98.3 | 103 | 104 | 102 | 100 | 107 | 106 | 109 | 104 | 99.1 | 95.6 | 100 | 91.4 | 101 | 86.5 | 93.1 | 105 | 99.5 | 105 | 105 | 93.7 | 106 | 93.6 | 90.9 | 92.7 | > 10 | > 10 | > 10 | > 10 | > 10 | 0 | 0 | 0.1 | 0 | 0
